Experimental data published in patent publication US10441588B2, “Methods and compositions for treating bacterial infection” (Curators of the University of Missouri, priority 2012, dated 2019).

Experiments:
P. aeruginosa [1] = assay: Ciprofloxacin potency against P. aeruginosa
[2] = system: E. coli adhesion to human epithelial cells (Caco2); assay: E. coli adhesion to Caco2 cells; type: cell-based; details: Caco-2
Procedure: FIGS. 15A and 15B show CCG-211790 (NV001) inhibited E. coli virulence. FIG. 15A is a western blot of fliC expression at different concentrations of CCG-211790 (NV001).
CCG-211790 (NV001) and a number of structural analogs inhibited the expression of the flagellin gene (fliC) (FIG. 15A) and also the bacterial adhesion to human epithelial cells (Caco2) (FIG. 15B). As summarized in Table 5, the effect of compounds on E. coli flagellin expression was also tested by incubating compounds (5 and 25 μM) with E. coli for 6 hours, flagellin expression in supernatant (IVG-00601, 607) or cell pellet (IVG-00608-006014) was examined by western and quantified.

MRSA [3] = assay: MRSA skin punch wound infection in DIO mice; type: in vivo, diet induced obesity (DIO) mice; details: 10^8 CFU MRSA; 60 μg/wound in ointment (6% silica in cod liver oil) vs ointment alone
Text: In this example, in vivo and in vitro efficacy for wound infection (against MRSA and P. aeruginosa) was investigated. Diabetic ulcer lesion is a major complication of people with diabetes and represents a form of chronic wounds. Bacteria can form biofilm in the lesions, which is recalcitrant to treatment. Therefore, diet induced obesity (DIO) mice were used as a model of obesity and insulin resistance diabetes to test the in vivo efficacy of CCG-211790 to fight wound infections.
(§1) A skin punch wound was introduced to the DIO mice and infected with 10^8 CFU MRSA. Mice were then treated locally at the wound site with ointment containing CCG-211790 (60 μg/wound) in an ointment (6% silica in cod liver oil) or ointment alone. […] Furthermore, CCG-211790 protected mouse fibroblast cells (CCL-1) from MRSA cytoxicity in vitro (FIG. 13B).

MRSA [4] = assay: MRSA growth
Acinetobacter baumannii = assay: Vancomycin potency against Acinetobacter baumannii
E. coli flagellin (fliC) = assay: microbe, parasite or virus in culture; type: cell-based
P. aeruginosa [5] = assay: P. aeruginosa wound infection in DIO mice; type: in vivo
E. coli STEC O157:H7 = type: in vivo, mice
S. aureus biofilm = S. aureus biofilm inhibition, optical density, test/control; type: cell-based, Staphylococcus aureus; details: Staphylococcus aureus, growth of biofilm test/control by optical density
[6] = system: S. aureus clinical strain NRS234; assay: S. aureus pneumonia model; type: in vivo, Balb/C mice
Procedure: S. aureus is one of the major causative agents of pneumonia. CCG-211790 was tested in a pneumonia model. Balb/C mice were intra-nasally infected with 10^7 CFU S. aureus clinical strain NRS234 and treated with either 0.15 μmol CCG-211790 or DMSO two hours after infection. The mice were then treated with CCG-211790 or DMSO (control) twice a day after the day of infection for three days. […] Mice were also infected with higher dose of bacteria at 10^9 CFU treated intraperitoneally (ip) with either 0.15 μmol CCG-211790, vancomycin, combination of CCG-21790 and vancomycin, or DMSO two hours after infection. The mice were then treated twice a day after the day of infection for three days.

[7] = system: mouse fibroblast cells (CCL-1); assay: MRSA cytotoxicity on mouse fibroblast cells in vitro; type: cell-based
Procedure: as §1

[8] = system: A. baumannii (AYE) biofilm; assay: A. baumannii open wound infection mouse model; type: in vivo, mice; details: topical, 6 mg/ml in PEG, 100 μl daily
Procedure: A topical formulation (6 mg/ml in Polyehylene glycol; PEG) was tested for its in vivo efficacy on the open wound infection mouse model.

MRSA [9] = assay: MRSA response to antibiotics in presence of compound; details: 50 μM CCG-211790

COc1ccc2c(c1)-c1nc(SCC(F)(F)F)n(C)c(=O)c1C(C)(C)C2 [CCG-211790, 9-methoxy-3,5,5-trimethyl-2-((2,2,2-trifluoroethyl)thio)-5,6-dihydrobenzo[h]quinazolin-4(3H)-one]
ciprofloxacin potency against P. aeruginosa (P. aeruginosa [1]): enhanced
bacterial adhesion to human epithelial cells (Caco2) [2]: inhibited
skin lesion size (MRSA [3]): reduce the skin lesion size
effect on bacteria growth (MRSA [4]): little to no effect
potency of vancomycin against Acinetobacter baumannii (Acinetobacter baumannii): enhanced the potency
activity at 5 µM (E. coli flagellin (fliC); Escherichia coli, 6 h, read-out: E. coli flagellin production, Relative Level vs. Control, 5 μM): 56.9%
activity at 25 µM (E. coli flagellin (fliC); Escherichia coli, 6 h, read-out: E. coli flagellin production, Relative Level vs. Control, 25 μM): 15.4%
expression of the flagellin gene (fliC) (E. coli flagellin (fliC); western blot, different concentrations): inhibited
survival (P. aeruginosa [5]; female DIO mice, 10^8 CFU, 12 mg/kg CCG-211790 oral with 10 mg/kg vancomycin ip): 100%
skin lesion size (P. aeruginosa [5]; male and female DIO mice, with vancomycin vs only vancomycin): reduced
survival (E. coli STEC O157:H7; […], 10 mg/kg ip twice a day): 55.6%
infection symptoms and survival (E. coli STEC O157:H7; mouse, in vivo): improved infection symptoms and survival
activity at 5 µM (S. aureus biofilm; 5 μM, read-out: S. aureus Biofilm Inhibition 5 μM vs. (−) Control): 38.1%
activity at 50 µM (S. aureus biofilm; 50 μM, read-out: S. aureus Biofilm Inhibition 50 μM vs. (−) Control): 32.6%
bacterial counts in both lungs and spleens ([6]; 10^7 CFU intranasal, 0.15 μmol, twice a day for three days, vs DMSO): Significant reduction
protection of hosts (survival), monotherapy ([6]; 10^9 CFU, 0.15 μmol ip): Significant protection
survival rate, combination with vancomycin ([6]; 10^9 CFU, combination of vancomycin and CCG-211790): improved the survival rate
protection of CCL-1 cells from MRSA cytoxicity [7]: protected
A. baumannii infected wound lesion size [8]: reduced
antibiotic potency against MRSA (amoxicillin, vancomycin, clindamycin, tetracycline, erythromycin) (MRSA [9]): enhanced the antibiotic potency
